{"source": "patent US8551963B2", "about": "“Imidazolothiazole compounds and methods of use thereof” (Ambit Biosciences Corporation, priority 2008, dated 2013)", "key": {"CYP2D4": {"target": "CYP2D4 (Homo sapiens, UniProt P10635)", "sequence (P10635 whole entry, looked up)": "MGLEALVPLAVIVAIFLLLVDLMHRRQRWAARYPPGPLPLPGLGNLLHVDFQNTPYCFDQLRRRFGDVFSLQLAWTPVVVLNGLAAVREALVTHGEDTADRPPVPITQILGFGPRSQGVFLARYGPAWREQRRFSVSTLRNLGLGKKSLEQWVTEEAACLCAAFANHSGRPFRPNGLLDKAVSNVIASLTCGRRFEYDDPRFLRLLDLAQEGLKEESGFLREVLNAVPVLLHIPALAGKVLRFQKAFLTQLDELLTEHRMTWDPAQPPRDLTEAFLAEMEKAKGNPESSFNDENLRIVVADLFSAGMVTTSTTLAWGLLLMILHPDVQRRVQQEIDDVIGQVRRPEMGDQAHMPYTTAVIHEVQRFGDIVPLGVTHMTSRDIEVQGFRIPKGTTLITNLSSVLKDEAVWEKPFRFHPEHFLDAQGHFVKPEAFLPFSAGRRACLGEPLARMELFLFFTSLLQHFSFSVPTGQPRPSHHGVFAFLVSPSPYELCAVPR", "test": "Cyp enzyme inhibition assay in human liver microsomes, CYP2D4", "format": "in vitro ADME", "details": "both sexes, pooled human liver microsomes, pH 7.4, probe dextromethorphan, CYP2D4, substrate dextromethorphan", "procedure": "The ability of the compound I-1 to inhibit human metabolizing enzymes CYP3A4, CYP2C9, […], CYP2C19 and CYP1A2, was assessed using those enzymes found collectively in human liver microsomes. The test compound I-1 was prepared as a solution in DMSO or acetonitrile and plated in duplicate rows of a 96-well plate (Nunc) for a final assay concentration of 40 μM in 0.2% DMSO (or 2% acetonitrile) in the first column and serially diluted two-fold going down the row. A known selective inhibitor of a given CYP enzyme listed in Table 8 was selected as the appropriate positive control. For each CYP enzyme inhibition assay, an appropriate enzyme-substrate mixture was prepared to afford a final assay concentration of 75 mM KPO4/pH 7.4, 6.5 mM MgCl2, 0.25 mg/mL pooled male and female human liver microsome (CellzDirect lot HMMC-PL020) with the amounts of the appropriate substrate for each CYP enzyme assay given in Table 8. The enzyme-substrate mixture was added to columns 1 through 10 and column 11 served as a negative control with enzyme solution lacking substrate. A solution of NADPH (Calbiochem) was then added to all rows except for one where NADPH would be added after the incubation period, in order to detect NADPH-independent non-CYP-mediated metabolism. The plate was briefly vortexed and left to shake in a 37° C. water bath for 20 minutes. […]"}, "P-Glycoprotein": {"target": "P-Glycoprotein (Homo sapiens (Human), UniProt P08183)", "sequence (P08183 whole entry)": "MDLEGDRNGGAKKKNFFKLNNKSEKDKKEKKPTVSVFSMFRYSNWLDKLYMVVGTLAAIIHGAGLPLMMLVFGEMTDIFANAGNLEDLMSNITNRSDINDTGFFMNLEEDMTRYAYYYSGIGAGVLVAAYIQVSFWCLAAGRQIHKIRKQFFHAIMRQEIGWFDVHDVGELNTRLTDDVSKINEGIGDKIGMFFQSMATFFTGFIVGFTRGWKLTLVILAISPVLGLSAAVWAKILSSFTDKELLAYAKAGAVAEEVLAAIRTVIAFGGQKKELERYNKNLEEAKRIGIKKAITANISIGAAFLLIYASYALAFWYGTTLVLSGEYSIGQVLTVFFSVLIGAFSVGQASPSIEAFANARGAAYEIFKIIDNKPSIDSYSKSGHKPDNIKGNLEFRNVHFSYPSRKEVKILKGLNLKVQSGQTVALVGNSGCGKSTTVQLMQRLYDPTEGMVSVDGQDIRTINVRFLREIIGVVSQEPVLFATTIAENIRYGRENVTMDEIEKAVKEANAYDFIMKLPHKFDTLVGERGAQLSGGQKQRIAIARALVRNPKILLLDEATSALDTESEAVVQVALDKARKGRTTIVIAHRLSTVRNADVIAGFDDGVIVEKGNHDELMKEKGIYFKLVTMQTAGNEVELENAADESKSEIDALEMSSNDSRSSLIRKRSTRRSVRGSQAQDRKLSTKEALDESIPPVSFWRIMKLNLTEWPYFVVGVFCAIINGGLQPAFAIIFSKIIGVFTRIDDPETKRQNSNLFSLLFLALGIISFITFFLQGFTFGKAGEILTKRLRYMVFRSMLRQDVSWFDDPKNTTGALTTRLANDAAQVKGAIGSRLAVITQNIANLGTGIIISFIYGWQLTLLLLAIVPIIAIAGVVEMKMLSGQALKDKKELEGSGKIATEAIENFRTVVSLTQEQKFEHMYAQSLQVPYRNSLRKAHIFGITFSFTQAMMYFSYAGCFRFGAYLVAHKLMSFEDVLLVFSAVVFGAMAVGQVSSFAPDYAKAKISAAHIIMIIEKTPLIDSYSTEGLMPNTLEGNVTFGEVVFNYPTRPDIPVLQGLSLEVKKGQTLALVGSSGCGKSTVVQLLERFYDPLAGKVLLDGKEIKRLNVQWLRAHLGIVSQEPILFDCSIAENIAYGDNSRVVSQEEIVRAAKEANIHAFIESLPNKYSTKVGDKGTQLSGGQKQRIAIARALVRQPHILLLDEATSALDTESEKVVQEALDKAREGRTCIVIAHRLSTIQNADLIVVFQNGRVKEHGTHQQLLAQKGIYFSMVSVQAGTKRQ", "test": "Digoxin bidirectional MDR1-MDCK permeability, Compound I-1 as an inhibitor", "details": "Surf.", "description": "(§2) MDR1-MDCK cells were grown to confluence for 5-10 days on 1 μm filters in 24-well plate. Aliquots of DMSO solute stocks were diluted into Hank's balanced salt solution (HBSS) pH 7.4 containing 25 mM HEPES+−0.05% PS80 to give 0.5, 1.5 or 5.0 μM solute concentrations. Final concentrations of DMSO in the assayed samples ranged from 0.005% for the 0.5 μM concentration to 0.05% for the 5 μM concentration. […] The solute containing donor solutions were transferred to either the apical or basolateral chamber of the permeability diffusion apparatus. Receiver solutions consisted of Hank's balanced salt solution (HBSS) pH 7.4 containing 25 mM HEPES+0.05% PS80. The entire receiver solution was removed at 20 minute intervals and manually replaced with fresh buffer. The concentration of transported solute during each sampling interval was determined by HPLC/UV/MS. The standard curve was produced from serial dilutions of the dosing solution. D0 was a 50 μl aliquot of dosing solution from the donor well diluted with 450 μl of HBSS. The standard curve was produced from serial dilutions of the dosing solution (1:10, 1:25, 1:50, 1:100, 1:500 and 1:1000). Permeability coefficients were calculated for each sampling interval using the following equation:\n(§3) [formula] Where VD=volume of donor (0.4 ml for Ap_Bl flux and 1.0 ml for Bl_Ap flux), A=surface area of the filter on which the monolayer was grown (0.31 cm2), MD(0)=mass in the donor at the beginning of the ith sampling interval, MR (t)=mass in the receiver at time t, and _t is the experimental interval (20 minutes). The apparent permeability, Papp, is then calculated as the average:\n(§4) The average and standard deviation from the intervals is reported. Mass balance in the system was ascertained by comparing the sum of total transported solute and remaining donor solute with the starting mass of solute and is expressed as a percentage of donor solute at time zero. […] At the termination of the experiment, the cell monolayers are stored in the cold until the data is analyzed. After analysis, if mass balance falls below 70% in a given experiment, those monolayers are retrieved and extracted with acetonitrile. After separation of cellular debris, the extract is analyzed for recoverable solute of interest. […] All determinations were performed in duplicate."}, "CYP3A4": {"target": "CYP3A4 (Homo sapiens (Human), UniProt P08684)", "sequence (P08684 whole entry, canonical isoform)": "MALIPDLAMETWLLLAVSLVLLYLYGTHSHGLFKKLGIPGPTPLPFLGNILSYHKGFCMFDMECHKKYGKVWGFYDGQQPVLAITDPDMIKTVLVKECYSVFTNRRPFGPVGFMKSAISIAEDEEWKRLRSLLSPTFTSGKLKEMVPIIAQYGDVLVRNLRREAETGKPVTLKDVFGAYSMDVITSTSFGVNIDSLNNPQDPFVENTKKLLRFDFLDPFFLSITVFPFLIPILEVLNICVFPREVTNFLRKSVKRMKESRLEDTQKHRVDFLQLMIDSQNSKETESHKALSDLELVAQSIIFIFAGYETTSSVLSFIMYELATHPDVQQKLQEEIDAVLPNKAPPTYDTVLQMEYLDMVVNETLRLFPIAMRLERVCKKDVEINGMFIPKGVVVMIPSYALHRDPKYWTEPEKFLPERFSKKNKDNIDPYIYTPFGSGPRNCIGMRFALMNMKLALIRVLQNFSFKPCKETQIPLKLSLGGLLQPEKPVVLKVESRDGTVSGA", "test": "Time dependant inhibition in human liver microsomes, CYP3A4", "format": "in vitro ADME", "details": "CYP3A4, 10 μM, pre-incubation 0-30 minutes", "procedure": "(§1) For each CYP isoform tested, 10 μM Compound I-1 was pre-incubated with pooled male and female human liver microsomes with NADPH in a 37° C. shaking water bath in duplicate to afford a final pre-incubation assay concentration of 100 mM KPO4/pH 7.4, 10 mM MgCl2, 2 mg/mL of human liver microsome (CellzDirect lot HLM HMMC-PL020) and 1 mM NADPH (Calbiochem). At each pre-incubation time point (0, 5, 10, 20, and 30 minutes) 20 μL was removed and placed in a second 96 well plate on ice. After all pre-incubation time points were collected 180 uL of additional human microsome liver preparation containing the appropriate CYP specific substrate at its Km concentration listed in Table 11 plus NADPH, was added to each time point. The samples were incubated for an additional 10 minutes in a 37° C. shaking water bath and then quenched with 75:25 acetonitrile (ACN):water containing the appropriate internal standards listed in Table 11. After brief mixing, the plate was centrifuged and the supernatant removed for analysis by LC/MS/MS (API 4000 Qtrap) for the formation of 6-hydroxy-testosterone (CYP3A4), 4-hydroxy-mephenyloin (CYP2C19), or 6-hydroxy-taxol (CYP2C8). […] Consistent with Example 5, Compound I-1 did inhibit CYP2C8-mediated metabolite formation at 10 μM, but not in a time dependent manner."}, "FLT3": {"target": "FLT3 (Homo sapiens (Human), UniProt P36888)", "test": "biochemical", "format": "binding", "description": "(§5) Competition binding assays used herein were developed, validated and performed as described in Fabian et al., Nature Biotechnology 2005, 23, 329-336. Kinases were produced as fusions to T7 phage (See, Fabian et al. or WO04/015142) or alternatively, the kinases were expressed in HEK-293 cells and subsequently tagged with DNA for PCR detection (See, WO08/005,310). […] The liganded beads were blocked with excess biotin and washed with blocking buffer (SeaBlock (Pierce), 1% BSA, 0.05% Tween 20, 1 mM DTT) to remove unbound ligand and to reduce non-specific binding. […] Test compounds were prepared as 100× stocks in DMSO and rapidly diluted into the aqueous environment. DMSO was added to control assays lacking a test compound. […] The kinase concentration in the eluates was measured by quantitative PCR. Each kinase was tested individually against each compound. Kds were determined using eleven serial threefold dilutions."}, "CYP2C8": {"target": "CYP2C8 (Homo sapiens (Human), UniProt P10632)", "sequence (P10632 whole entry)": "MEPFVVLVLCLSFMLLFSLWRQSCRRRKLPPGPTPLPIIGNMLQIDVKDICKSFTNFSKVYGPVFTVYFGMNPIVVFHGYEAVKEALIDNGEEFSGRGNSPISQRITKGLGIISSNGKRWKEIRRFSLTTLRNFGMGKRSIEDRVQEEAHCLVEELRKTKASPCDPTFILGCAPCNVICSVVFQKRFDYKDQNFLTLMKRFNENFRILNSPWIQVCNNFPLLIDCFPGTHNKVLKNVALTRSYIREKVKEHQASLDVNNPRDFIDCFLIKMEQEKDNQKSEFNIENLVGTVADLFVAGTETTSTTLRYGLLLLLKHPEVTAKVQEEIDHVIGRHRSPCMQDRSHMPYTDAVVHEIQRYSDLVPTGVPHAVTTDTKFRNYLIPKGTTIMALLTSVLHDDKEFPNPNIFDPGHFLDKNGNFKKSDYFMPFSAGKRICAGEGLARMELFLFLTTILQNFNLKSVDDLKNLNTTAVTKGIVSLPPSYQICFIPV", "test": "Time dependant inhibition in human liver microsomes, CYP2C8", "format": "in vitro ADME", "procedure": "as §1"}, "FLT3 (N841I)": {"target": "FLT3 (N841I) (Homo sapiens (Human), UniProt P36888, N841I)", "test": "biochemical", "format": "binding", "description": "The liganded beads were blocked with excess biotin and washed with blocking buffer (SeaBlock (Pierce), 1% BSA, 0.05% Tween 20, 1 mM DTT) to remove unbound ligand and to reduce non-specific binding. […] Test compounds were prepared as 100× stocks in DMSO and rapidly diluted into the aqueous environment. DMSO was added to control assays lacking a test compound. […] The kinase concentration in the eluates was measured by quantitative PCR. Each kinase was tested individually against each compound. Kds were determined using eleven serial threefold dilutions."}, "CYP2C19": {"target": "CYP2C19 (Homo sapiens (Human), UniProt P33261)", "sequence (P33261 whole entry)": "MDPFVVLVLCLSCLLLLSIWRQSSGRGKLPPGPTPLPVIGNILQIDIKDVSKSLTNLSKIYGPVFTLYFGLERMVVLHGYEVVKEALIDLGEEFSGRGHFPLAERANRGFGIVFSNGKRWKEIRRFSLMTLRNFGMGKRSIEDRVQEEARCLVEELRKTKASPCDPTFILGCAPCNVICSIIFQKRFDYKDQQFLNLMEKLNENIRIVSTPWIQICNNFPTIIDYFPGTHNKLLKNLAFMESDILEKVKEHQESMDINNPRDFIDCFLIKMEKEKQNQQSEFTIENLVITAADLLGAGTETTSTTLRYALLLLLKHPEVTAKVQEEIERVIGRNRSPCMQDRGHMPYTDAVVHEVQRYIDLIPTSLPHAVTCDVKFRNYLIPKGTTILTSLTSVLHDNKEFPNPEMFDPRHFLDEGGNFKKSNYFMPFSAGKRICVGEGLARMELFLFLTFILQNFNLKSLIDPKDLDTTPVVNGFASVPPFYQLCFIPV", "test": "Time dependant inhibition in human liver microsomes, CYP2C19", "format": "in vitro ADME", "details": "CYP2C19, 10 μM, pre-incubation 0-30 minutes", "procedure": "as §1"}, "[1]": {"test": "Aqueous and surfactant solubility", "format": "physicochemical", "details": "kinetic from dmso stock, room temperature overnight", "description": "After equilibration at room temperature overnight the solutions were filtered and solute concentration determined by fast gradient HPLC without further dilution of the samples. […] These analytical standards were prepared from a 500 μM intermediate stock solution made by diluting 10 μl of the 10 mM sample stocks into 190 μl of 50:50 (v/v) acetonitrile/water. Aliquots of this solution were transferred in duplicate into a 96 well plate in the amounts of 0.4, 2, 4, 20, 40, and 100 μl with the volumes made up to 200 total μl with acetonitrile/water and the plate was then heat sealed with a foil sheet. Prior to sample filtration, filters were primed with 600 μl of sample to resolve potential adsorption problems. Both sample replicates were collected through the primed filter. Duplicate determinations were made in all cases."}, "FLT3 (ITD)": {"target": "FLT3 (ITD) (Homo sapiens, UniProt P36888, ITD)", "test": "biochemical", "format": "binding", "description": "as §5"}, "FLT3 (K663Q)": {"target": "FLT3 (K663Q) (Homo sapiens (Human), UniProt P36888, K663Q)", "test": "biochemical", "format": "binding", "description": "as §5"}, "MDR1-MDCK cells": {"test_system": "MDR1-MDCK cells", "test": "Bidirectional MDR1-MDCK permeability, Compound I-1 as a substrate", "details": "5 μM, Surf.", "description": "as §2, §3, §4"}, "P-glycoprotein (MDR1)": {"test_system": "P-glycoprotein (MDR1)", "test": "Bidirectional MDR1-MDCK permeability, Compound I-1 as a substrate", "details": "dog, Surf.", "description": "as §2, §3, §4"}, "[2]": {"details": "Table 17, Digoxin 1 μM + Compound I-1 5.0 μM"}, "[3]": {"details": "preliminary experiment, Digoxin 1 μM + Compound I-1 0.5 μM"}, "[4]": {"details": "preliminary experiment, Digoxin 1 μM + Compound I-1 1.5 μM"}, "[5]": {"details": "preliminary experiment, Digoxin 1 μM + Compound I-1 5.0 μM"}}, "note": "Values joined by “and” are separate entries in the source; they are usually repeats but may differ in a detail not shown here. Equal values may be shown once. Read-outs that look alike come from different tables or passages of the source.", "data": [{"smiles": "CC(C)(CO)c1cc(NC(=O)Nc2ccc(-c3cn4c(n3)sc3cc(OCCN5CCOCC5)ccc34)cc2)no1", "note": "[Compound I-1, 1-[5-(2-hydroxy-1,1-dimethyl-ethyl)-isoxazol-3-yl]-3-{4-[7-(2-morpholin-4-yl-ethoxy)-benzo[d]imidazo[2,1-b]thiazol-2-yl]-phenyl}-urea]", "values": [{"measurement": "IC50 at 20 min", "setting": "CYP2D4", "value": "> 40000", "unit": "nM"}, {"measurement": "Digoxin Mass Bal (AP→BL)", "setting": "P-Glycoprotein; [2]", "value": 104, "unit": "%"}, {"measurement": "Digoxin Mass Bal (BL→AP)", "setting": "P-Glycoprotein; [2]", "value": 98, "unit": "%"}, {"measurement": "Digoxin Mass Bal (AP→BL)", "setting": "P-Glycoprotein; [3]", "value": 98, "unit": "%"}, {"measurement": "Digoxin Mass Bal (BL→AP)", "setting": "P-Glycoprotein; [3]", "value": 91, "unit": "%"}, {"measurement": "Digoxin Mass Bal (AP→BL)", "setting": "P-Glycoprotein; [4]", "value": 98, "unit": "%"}, {"measurement": "Digoxin Mass Bal (BL→AP)", "setting": "P-Glycoprotein; [4]", "value": 94, "unit": "%"}, {"measurement": "Digoxin Mass Bal (AP→BL)", "setting": "P-Glycoprotein; [5]", "value": 93, "unit": "%"}, {"measurement": "Digoxin Mass Bal (BL→AP)", "setting": "P-Glycoprotein; [5]", "value": 99, "unit": "%"}, {"measurement": "Time dependant inhibition", "setting": "CYP3A4", "value": "not a time dependant inhibitor"}, {"measurement": "Kd", "setting": "FLT3", "value": 0.68, "unit": "nM"}, {"measurement": "Inhibition of CYP2C8-mediated metabolite formation", "setting": "CYP2C8; 10 μM", "value": "did inhibit"}, {"measurement": "Time dependant inhibition", "setting": "CYP2C8; CYP2C8, 10 μM, pre-incubation 0-30 minutes", "value": "not a time dependant inhibitor"}, {"measurement": "Kd", "setting": "FLT3 (N841I)", "value": 0.77, "unit": "nM"}, {"measurement": "Time dependant inhibition", "setting": "CYP2C19", "value": "not a time dependant inhibitor"}, {"measurement": "solubility", "setting": "[1]; HBSS buffer with 0.05% Polysorbate 80, pH 7.4, aqueous with cosolvent or surfactant or cyclodextrin, HBSS containing 0.05% Polysorbate 80, 2.5% DMSO, read-out: Average Aqueous Solubility, 0.05% Polysorbate 80", "value": 2, "unit": "µM"}, {"measurement": "solubility", "setting": "[1]; Hank's balanced salt solution (HBSS) buffer, aqueous buffer, HBSS pH 7.4, 2.5% DMSO, read-out: Average Aqueous Solubility, pH 7.4", "value": "< 1", "unit": "µM"}, {"measurement": "Kd", "setting": "FLT3 (ITD)", "value": 8.8, "unit": "nM"}, {"measurement": "Kd", "setting": "FLT3 (K663Q)", "value": 0.69, "unit": "nM"}, {"measurement": "Assymetry Index", "setting": "MDR1-MDCK cells", "value": 1.7}, {"measurement": "PeAP→BL", "setting": "MDR1-MDCK cells", "value": 2.81, "unit": "×10⁻⁶ cm/s"}, {"measurement": "PeBL→AP", "setting": "MDR1-MDCK cells", "value": "6.31 ×10⁻⁶ cm/s and 4.67 ×10⁻⁶ cm/s"}, {"measurement": "efflux ratio at 5 μM", "setting": "P-glycoprotein (MDR1); MDCK-MDR1, pH 7.4, Assymetry Index", "value": 1.2}, {"measurement": "Papp A→B at 5 μM", "setting": "P-glycoprotein (MDR1); MDCK-MDR1, pH 7.4, PeAP→BL", "value": 5.1, "unit": "×10⁻⁶ cm/s"}]}]}
